The target in one test is T1, PPAR gamma (Homo sapiens, UniProt P37231).
T1 construct: host or cells: engineered reporter cells of the kit (analogous to the human PPARα kit)
T1 sequence (P37231 1-505): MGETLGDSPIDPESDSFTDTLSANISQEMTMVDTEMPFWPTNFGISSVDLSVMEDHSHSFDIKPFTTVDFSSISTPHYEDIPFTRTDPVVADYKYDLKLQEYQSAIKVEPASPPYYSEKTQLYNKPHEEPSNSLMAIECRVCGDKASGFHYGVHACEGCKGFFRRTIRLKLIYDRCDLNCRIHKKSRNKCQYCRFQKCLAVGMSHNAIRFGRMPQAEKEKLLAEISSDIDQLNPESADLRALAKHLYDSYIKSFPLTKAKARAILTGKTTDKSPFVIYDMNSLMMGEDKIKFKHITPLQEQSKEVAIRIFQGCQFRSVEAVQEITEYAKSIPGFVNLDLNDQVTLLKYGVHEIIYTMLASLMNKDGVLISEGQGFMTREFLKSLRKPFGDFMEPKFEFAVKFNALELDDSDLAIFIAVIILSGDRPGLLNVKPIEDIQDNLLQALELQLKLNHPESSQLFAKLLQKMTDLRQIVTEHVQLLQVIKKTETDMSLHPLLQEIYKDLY
In words: Target selectivity counterscreen, PPAR γ reporter assay. The format is cell-based. The note with it: receptor agonist at ~EC80. Here is the method: (§1) Target Selectivity Assays
(§2) To determine species selectivity, a Mouse PPARα Reporter Assay System was used (Indigo Biosciences, Cat. #M00111). Activity of test compounds to antagonize or agonize other isoforms of human PPAR, for example β/δ and γ, were assessed using the corresponding kits from Indigo Biosciences (Cat. #IB00121 and #IB00101, respectively). In addition to PPAR activity, compounds were also screened for activity against other nuclear hormone receptors including Estrogen Receptor β, Glucocorticoid Receptor and Thyroid Receptor β using commercially available kits (Indigo Biosciences, Cat. #IB00411, IB00201 and IB01101, respectively). Each assay system from Indigo Biosciences uses technology analogous to the human PPARα kit, with the variance being that the cells used for each assay were engineered to over-express the receptor of interest. In addition, the appropriate receptor agonist (included with each kit) was used at ˜EC80 for assays in which antagonist potency was being assessed.
(Counterscreens check selectivity or assay interference.)

The target in another test is T2, PPAR beta/delta (Homo sapiens, UniProt Q03181).
T2 construct: host or cells: engineered reporter cells of the kit (analogous to the human PPARα kit)
T2 sequence (Q03181 1-441): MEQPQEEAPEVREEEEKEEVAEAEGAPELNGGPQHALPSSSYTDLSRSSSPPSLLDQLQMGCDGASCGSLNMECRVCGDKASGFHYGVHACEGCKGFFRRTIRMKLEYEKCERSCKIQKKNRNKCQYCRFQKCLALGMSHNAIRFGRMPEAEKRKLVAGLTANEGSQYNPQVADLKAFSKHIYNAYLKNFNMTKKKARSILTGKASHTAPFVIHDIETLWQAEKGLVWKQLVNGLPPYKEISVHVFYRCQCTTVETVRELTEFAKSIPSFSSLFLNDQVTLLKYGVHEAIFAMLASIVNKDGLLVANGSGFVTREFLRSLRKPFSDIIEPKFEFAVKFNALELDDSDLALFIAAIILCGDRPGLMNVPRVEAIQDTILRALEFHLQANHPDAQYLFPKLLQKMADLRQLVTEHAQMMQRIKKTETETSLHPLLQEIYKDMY
In words: Target selectivity counterscreen, PPAR β/δ reporter assay. The test is classed as cell-based. The note with it: receptor agonist at ~EC80. Here is the method:
as §1, §2

pIC50: −log10 of the molar value.

In the case of `CCOc1ccc(-c2cccc(CCCc3nn(Cc4ccc(C(C)(C)C)cc4)c(=O)n3CC)c2)cc1CC(=O)O` [Example 6, 2-(3′-(3-(1-(4-(tert-Butyl)benzyl)-4-ethyl-5-oxo-4,5-dihydro-1H-1,2,4-triazol-3-yl)propyl)-4-ethoxy-[1,1′-biphenyl]-3-yl)acetic acid], the negative logarithm of the IC50 (pIC50) at PPAR gamma is 4.40; at PPAR beta/delta it was 4.88.

As usually defined, the pIC50 is the negative decadic logarithm of the IC50, by convention in mol/L. The low end stands for a large IC50, the high end for a small IC50.

These data come from patent US9676754B2, “Triazolone compounds and uses thereof” (Inception 2, Inc., priority 2012, dated 2017).
